What was measured:
ACE2 [1] = assay: ACE2 protein expression in HUVECs (Western blot, immunofluorescence); format: cell-based, human; details: HUVECs, 25, 50, 100 μM, 24 h
From the text: Human umbilical vein endothelial cells (HUVECs) were isolated from umbilical cords as previously described ([Jaffe et al., 1973]). They were purchased from ATCC (cat# CRL-1444, Manassas, VA, United States) and cultured in endothelial cell medium (ECM, ScienCell, Carlsbad, CA, United States) supplemented with 5% FBS, 1% endothelial cell growth supplement, and 1% antibiotics (Sigma, St. Louis, MO, United States). Cells harvested between the third and tenth passages were used in the experiments. Cells were cultured until they were ∼80% confluent. […]
After treatment with different concentrations of BAC (Control, DMSO, 25, 50, and 100 μM, dissolved in 0.1% DMSO–DMEM) for 24 h, the cells were washed with PBS three times, fixed in 4% paraformaldehyde for 20 min, permeabilized with 0.3% Triton X-100 for 20 min, and then blocked with 5% BSA for 30 min at room temperature of 25°C. […] The samples were analyzed using a confocal laser scanning microscope (Zeiss LSM 510 META, Oberkochen, Germany).
(§1) The cell samples and tissue sample were collected and placed in ice rapidly. […] Protein concentration in cell lysates was measured using a Bio-Rad DC Protein Assay Kit […]. […]

thoracic aorta = assay: vascular function: Ang I pre-constricted isolated thoracic aorta; details: isolated aorta of SD rat, Ang I 10^–2 μM
Procedure: Endothelium-dependent vasorelaxation using aorta was evaluated as previously described ([Liao et al., 2019]). Briefly, after euthanizing the SD rat with sodium pentobarbital (100 mg kg^−1, i.p.) administration in combination with isoflurane inhalation, thoracic aorta (diameter: 150–250 μm, length: 2 mm) was mounted on two tungsten wires and attached to a tension sensor system (ADInstruments). After balancing for 2 h in Krebs’ solution at 37°C, arteries were exposed to 10 µM of phenylephrine (PE, Sigma-Aldrich, St. Louis, MO, United States) twice, followed by a single dose of acetylcholine (Ach, 3 μm, Sigma-Aldrich, St. Louis, MO, United States) to evaluate the integrity of the vessel. Afterward, the vessel was pre-constricted to maximum using AngI (Sigma-Aldrich) at 10^–2 μM and then treated with a series concentration of BAC or A779 (Sigma-Aldrich) or captopril at 10^–6 to 10^–1 μM. Lastly, a cumulative concentration response curve to BAC with A779 (at 10^–2 μM) was performed to assess the endothelium-dependent vasorelaxation.

ACE2 [2] = assay: ACE2 expression in aorta of SHRs (Western blot, tissue immunofluorescence); format: in vivo, rat; details: oral 14 days
From the text: All three MDAs (BAC, BMC, and BHC) were purchased from Nature-Standard Co., Ltd. (Shanghai, China) and their purities were all over 98%. The anti-hypertensive effects of MDAs were studied in both acute and chronic experiments. The 16-week-old SHRs were used in animal experiments, and each group had six rats. In the acute experiment, drug administration was via i.v. injection. For i.v. injection, the animals were randomly assigned into four groups: vehicle (0.1% DMSO–0.9% salt solution, n = 6), low-dose group (0.6 mg kg^−1 body weight, n = 6), medium-dose group (2 mg kg^−1 body weight, n = 6), and high-dose group (6 mg kg^−1 body weight, n = 6). The drug was administered using a venous catheter. In chronic experiments, the animals were randomly assigned into five groups: vehicle (5% Tween 80–0.9% salt solution, n = 6), captopril group (5 mg kg^−1 body weight, n = 6), low-dose group (3 mg kg^−1 body weight, n = 6), medium-dose group (10 mg kg^−1 body weight, n = 6), and high-dose group (30 mg kg^−1 body weight, n = 6). Oral administration with drug or 5% Tween 80–0.9% salt solution was carried out once a day, and continued for 14 days. […] Blood pressure was recorded in real time. […]
as §1

COX-2 = COX-2 expression in aorta of SHRs (Western blot); format: in vivo, rat; details: oral 14 days
From the text: All three MDAs (BAC, BMC, and BHC) were purchased from Nature-Standard Co., Ltd. (Shanghai, China) and their purities were all over 98%. The anti-hypertensive effects of MDAs were studied in both acute and chronic experiments. The 16-week-old SHRs were used in animal experiments, and each group had six rats. In the acute experiment, drug administration was via i.v. injection. For i.v. injection, the animals were randomly assigned into four groups: vehicle (0.1% DMSO–0.9% salt solution, n = 6), low-dose group (0.6 mg kg^−1 body weight, n = 6), medium-dose group (2 mg kg^−1 body weight, n = 6), and high-dose group (6 mg kg^−1 body weight, n = 6). The drug was administered using a venous catheter. In chronic experiments, the animals were randomly assigned into five groups: vehicle (5% Tween 80–0.9% salt solution, n = 6), captopril group (5 mg kg^−1 body weight, n = 6), low-dose group (3 mg kg^−1 body weight, n = 6), medium-dose group (10 mg kg^−1 body weight, n = 6), and high-dose group (30 mg kg^−1 body weight, n = 6). Oral administration with drug or 5% Tween 80–0.9% salt solution was carried out once a day, and continued for 14 days. […] Blood pressure was recorded in real time.
as §1

With `CCN1CC2(COC)C(O)CC(OC)C34C5CC6(O)C(OC)C(O)C(O)(C5C6OC(=O)c5ccccc5)C(C(OC)C23)C14` (centres unmarked) [BAC, Benzoylaconitine] the “protein expression of ACE2” value (ACE2 [1]) was “does not affect”, the “Ang I-induced vascular constriction” value (thoracic aorta; 10^–6 to 10^–1 μM) was “attenuate” and the “attenuation of Ang I-induced vascular constriction in presence of Mas inhibitor A779” value (thoracic aorta; with A779) was “abolished”. For the same compound, the “ACE2 expression in the aorta” value (ACE2 [2]) was “no effect” and the “expression of COX-2” value (COX-2) was “downregulated”.

— article PMC8963105, “A Novel Modulator of the Renin–Angiotensin System, Benzoylaconitine, Attenuates Hypertension by Targeting ACE/ACE2 in Enhancing Vasodilation and Alleviating Vascular Inflammation” (Frontiers in Pharmacology, 2022)
